In ChEMBL document CHEMBL5729348, “Heterocyclic compounds for the inhibition of PASK” (2022):

Target: PAS domain-containing serine/threonine-protein kinase (Homo sapiens, UniProt Q96RG2)
Assay: PAS Kinase FRET Assay: The aim of the FRET assay is to determine the inhibition potential of test compounds on targeted kinase. This assay platform provides a homogenous screening method for measuring kinase activity by quantitating the amount of phospho-substrate in solution following a kinase reaction.In the presence of kinase and ATP, the Ulight-peptide is phosphorylated and captured by an anti-phospho-substrate antibody, which brings the Eu chelate donor and Ulight acceptor dyes into close proximity. Upon excitation at 340 nm, the Eu chelate transfers its energy to the Ulight dye, resulting in a fluorescent light emission at 665 nm.Titration of kinase at 1 mM ATP was achieved via the following protocol. After making serial three-fold dilutions of PASK (Invitrogen) in reaction buffer across the plate; 5 μl of kinase dilution and 5 μl substrate/ATP mix were added to the wells of the white Optiplate-384 (PerkinElmer). The contents of the plate were and incubated at RT for 1 h. The reaction was stopped by adding 5 μl of stop solution to each test well followed by mixing and incubation at RT for 10 minutes. 5 μl of detection mix (detection antibody diluted in detection buffer) was added; the contents of the plate were mixed and then incubated in the dark for 1 hour at RT. The signal was recorded at TR-FRET mode (665 nm/615 nm). The results were graphed to calculate the EC50. […]

Chain of PAS domain-containing serine/threonine-protein kinase (Q96RG2 whole entry, the tested form may be a part): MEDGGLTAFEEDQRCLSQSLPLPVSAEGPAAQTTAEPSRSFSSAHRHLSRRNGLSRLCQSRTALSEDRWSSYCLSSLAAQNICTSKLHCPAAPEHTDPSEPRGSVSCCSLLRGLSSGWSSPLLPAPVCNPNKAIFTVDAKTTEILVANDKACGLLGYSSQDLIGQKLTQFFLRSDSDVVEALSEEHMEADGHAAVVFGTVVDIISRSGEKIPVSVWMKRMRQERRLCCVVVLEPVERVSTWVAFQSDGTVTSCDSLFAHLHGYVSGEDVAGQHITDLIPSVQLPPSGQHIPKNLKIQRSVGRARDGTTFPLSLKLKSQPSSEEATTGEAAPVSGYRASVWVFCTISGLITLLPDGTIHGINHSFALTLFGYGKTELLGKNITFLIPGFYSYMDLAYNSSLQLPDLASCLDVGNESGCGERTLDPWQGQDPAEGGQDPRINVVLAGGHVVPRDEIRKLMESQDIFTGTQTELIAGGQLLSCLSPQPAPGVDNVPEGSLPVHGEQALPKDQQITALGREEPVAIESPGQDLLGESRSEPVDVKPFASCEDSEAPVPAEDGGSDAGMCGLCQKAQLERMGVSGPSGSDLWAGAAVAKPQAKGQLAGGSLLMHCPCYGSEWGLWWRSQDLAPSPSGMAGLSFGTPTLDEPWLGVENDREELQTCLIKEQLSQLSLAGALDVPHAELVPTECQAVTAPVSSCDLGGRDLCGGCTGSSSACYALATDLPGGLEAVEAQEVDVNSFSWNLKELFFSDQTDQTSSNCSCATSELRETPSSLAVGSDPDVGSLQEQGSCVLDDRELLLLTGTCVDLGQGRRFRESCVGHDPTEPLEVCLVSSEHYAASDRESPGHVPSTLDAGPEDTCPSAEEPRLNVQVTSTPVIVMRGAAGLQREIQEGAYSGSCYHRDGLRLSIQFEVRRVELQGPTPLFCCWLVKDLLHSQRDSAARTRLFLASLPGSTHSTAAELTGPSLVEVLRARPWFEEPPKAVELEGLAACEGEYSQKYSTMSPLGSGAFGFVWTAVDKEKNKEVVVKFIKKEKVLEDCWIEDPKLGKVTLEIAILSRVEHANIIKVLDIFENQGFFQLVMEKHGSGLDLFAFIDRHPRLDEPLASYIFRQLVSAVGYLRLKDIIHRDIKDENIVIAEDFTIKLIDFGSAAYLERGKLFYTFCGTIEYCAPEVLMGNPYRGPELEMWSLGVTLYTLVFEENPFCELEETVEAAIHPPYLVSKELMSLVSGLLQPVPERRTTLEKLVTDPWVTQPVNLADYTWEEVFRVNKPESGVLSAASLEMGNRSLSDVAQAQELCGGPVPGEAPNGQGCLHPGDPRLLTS

Q: Which IC50 does the source give for `CN(c1nc2cc(C(=O)O)ccc2nc1-c1ccc(F)cc1)C1CCNCC1` here?
A: < 10 µM
